system: A549 cells; assay: Cell migration assay (24-well transwell, laminin); format: cell-based, human; settings: Homo sapiens, A549, 6 h, laminin 10 μg/mL in lower well, test compounds 0.39˜100 μM, migrated cells counted, read-out: Inhibitory activity against cell migration
Procedure: Cell migration was measured with a 24-well transwell having a polycarbonate membrane (8.0 μm pore size, Costar) at the bottom of the upper chamber. Each lower well was treated with laminin (10 μg/mL) and test compounds in predetermined concentrations (0.39˜100 μM) along with a serum-free RPMI1640 medium. A549 cells (Korean Cell Line Bank) were suspended in a serum-free RPMI1640 medium at a concentration of 1×10^6 cells/mL and then the test compounds were added thereto at the indicated concentrations. Each resulting solution (100 μL) was added to the upper chamber. The cells were cultured at 37° C. for 6 hours in a CO2 incubator. The upper chamber was taken out and then the cells were fixed with PBS containing 70% methyl alcohol for 10 minutes, followed by washing with PBS twice. The cells were stained with hematoxylin (Sigma) for 10 minutes and then washed with distilled water. The non-migrated cells were removed from the upper portion of the polycarbonate membrane with a cotton swab. The membranes were excised and separated from the chamber, and then mounted to a slide using a gel mount reagent (Biomeda, USA). The migrated cells (attached to the lower face of the membrane) were counted at three randomly selected sites under a microscope (×20). The cell counting was performed with the Image J program. From the counted cell numbers, each IC50 value was calculated by non-linear regression curve fit using the “GraphPad Prism” program.
The cells are pulled by laminin residing in the lower chamber and then passed through the polycarbonate membrane, so as to attach to the lower face of the membrane.

Structure (SMILES)	IC50 [µM]
COc1ccc(CCN(Cc2ccc(C(=O)O)cc2)c2nc3cccc(F)c3s2)cc1Cl [Example 29, 4-({[2-(3-chloro-4-methoxyphenyl)ethyl](7-fluorobenzo[d]thiazol-2-yl)amino}methyl)benzoic acid]	< 1
O=C(O)c1ccc(CN(CCc2cccc(F)c2)c2nc3cccc(F)c3s2)cc1 [Example 3, 4-({(7-fluorobenzo[d]thiazol-2-yl)[2-(3-fluorophenyl)ethyl]amino}methyl)benzoic acid]	> 10
COc1ccc(CCN(Cc2ccc(C(=O)O)cc2)c2nc3cccc(F)c3s2)c(F)c1F [Example 43, 4-({[2-(2,3-difluoro-4-methoxyphenyl)ethyl](7-fluorobenzo[d]thiazol-2-yl)amino}methyl)benzoic acid]	< 1
COc1cc(F)c(CCN(Cc2ccc(C(=O)O)cc2)c2nc3cccc(F)c3s2)cc1F [Example 45, 4-({[2-(2,5-difluoro-4-methoxyphenyl)ethyl](7-fluorobenzo[d]thiazol-2-yl)amino}methyl)benzoic acid]	< 1
CCC(c1ccc(C(=O)O)cc1)N(CCc1ccc(OC)cc1)c1nc2cccc(F)c2s1 (centres unmarked) [Example 53, 4-(1-{(7-fluorobenzo[d]thiazol-2-yl)[2-(4-methoxyphenyl)ethyl]amino}propyl)benzoic acid]	< 1
CCOc1ccc(CCN(Cc2ccc(C(=O)O)cc2)c2nc3cccc(F)c3s2)cc1 [Example 9, 4-{[[2-(4-ethoxyphenyl)ethyl](7-fluorobenzo[d]thiazol-2-yl)amino]methyl}benzoic acid]	< 1
O=C(O)c1ccc(CN(CCc2ccc(OCC3CCC3)cc2)c2nc3cccc(F)c3s2)cc1 [Example 24, 4-{[[2-(4-cyclobutylmethoxyphenyl)ethyl]-(7-fluorobenzo[d]thiazol-2-yl)amino]methyl}benzoic acid]	1 to 10
COc1ccc(CCN(Cc2ccc(C(=O)O)cc2)c2nc3cccc(F)c3s2)cc1OC [Example 15, 4-({[2-(3,4-dimethoxyphenyl)ethyl](7-fluorobenzo[d]thiazol-2-yl)amino}methyl)benzoic acid]	< 1
COc1ccc(CCN(Cc2ccc(C(=O)O)cc2)c2nc3cccc(F)c3s2)cc1F [Example 28, 4-({(7-fluorobenzo[d]thiazol-2-yl)[2-(3-fluoro-4-methoxyphenyl)ethyl]amino}methyl)benzoic acid]	< 1
COc1ccc(CCN(c2nc3cccc(F)c3s2)C(C)c2ccc(C(=O)O)cc2)cc1 (centres unmarked) [Example 52, 4-(1-{(7-fluorobenzo[d]thiazol-2-yl)[2-(4-methoxyphenyl)ethyl]amino}ethyl)benzoic acid]	< 1
COc1ccc(CCN(Cc2ccc(C(=O)O)cc2)c2nc3cccc(F)c3s2)cc1 [Example 1, 4-({(7-fluorobenzo[d]thiazol-2-yl)[2-(4-methoxyphenyl)ethyl]amino}methyl)benzoic acid]	< 1
CCCOc1ccc(CCN(Cc2ccc(C(=O)O)cc2)c2nc3cccc(F)c3s2)cc1 [Example 10, 4-({(7-fluorobenzo[d]thiazol-2-yl)[2-(4-propoxyphenyl)ethyl]amino}methyl)benzoic acid]	1 to 10
COc1ccc(CCN(Cc2ccc(C(=O)O)cc2)c2nc3cccc(F)c3s2)c(Cl)c1 [Example 46, 4-({[2-(2-chloro-4-methoxyphenyl)ethyl](7-fluorobenzo[d]thiazol-2-yl)amino}methyl)benzoic acid]	> 10
CCNc1ccc(CCN(Cc2ccc(C(=O)O)cc2)c2nc3cccc(F)c3s2)cc1 [Example 31, 4-{[[2-(4-ethylaminophenyl)ethyl](7-fluorobenzo[d]thiazol-2-yl)amino]methyl}benzoic acid]	1 to 10
O=C(O)c1ccc(CN(CCc2ccc(Cl)cc2Cl)c2nc3cccc(F)c3s2)cc1 [Example 38, 4-({[2-(2,4-dichlorophenyl)ethyl](7-fluorobenzo[d]thiazol-2-yl)amino}methyl)benzoic acid]	> 10
COc1ccccc1CCN(Cc1ccc(C(=O)O)cc1)c1nc2cccc(F)c2s1 [Example 16, 4-({(7-fluorobenzo[d]thiazol-2-yl)[2-(2-methoxyphenyl)ethyl]amino}methyl)benzoic acid]	> 10
CC(C)c1ccc(CCN(Cc2ccc(C(=O)O)cc2)c2nc3cccc(F)c3s2)cc1 [Example 33, 4-{[(7-fluorobenzo[d]thiazol-2-yl){2-[4-(propan-2-yl)phenyl]ethyl}amino]methyl}benzoic acid]	> 10
COc1cc(C)c(CCN(Cc2ccc(C(=O)O)cc2)c2nc3cccc(F)c3s2)cc1C [Example 48, 4-({(7-fluorobenzo[d]thiazol-2-yl)[2-(4-methoxy-2,5-dimethylphenyl)ethyl]amino}methyl)benzoic acid]	< 1
COc1ccc(OC)c(CCN(Cc2ccc(C(=O)O)cc2)c2nc3cccc(F)c3s2)c1 [Example 14, 4-({[2-(2,5-dimethoxyphenyl)ethyl](7-fluorobenzo[d]thiazol-2-yl)amino}methyl)benzoic acid]	> 10

Continued, values first:

IC50 [µM]	Structure (SMILES)
> 10	COc1ccc(CCN(Cc2ccc(C(=O)O)cc2)c2nc3cc(C)ccc3s2)cc1 [Example 98, 4-({[2-(4-methoxyphenyl)ethyl](5-methyl-benzo[d]thiazol-2-yl)amino}methyl)benzoic acid]
> 10	COc1ccc(CCN(c2nc3ccc(F)c(F)c3s2)C(C)c2ccc(C(=O)O)cc2)cc1 (centres unmarked) [Example 104, 4-(1-{(6,7-difluorobenzo[d]thiazol-2-yl)[2-(4-methoxyphenyl)ethyl]amino}ethyl)benzoic acid]
> 10	COc1ccc(CCN(Cc2ccc(C(=O)O)cc2)c2nc3cccc(C)c3s2)cc1 [Example 96, 4-({[2-(4-methoxyphenyl)ethyl](7-methyl-benzo[d]thiazol-2-yl)amino}methyl)benzoic acid]
> 10	COc1ccc(CCN(c2nc3cccc(F)c3s2)C(C)c2ccc(C(=O)O)cc2)cc1F (centres unmarked) [Example 54, 4-(1-{(7-fluorobenzo[d]thiazol-2-yl)[2-(3-fluoro-4-methoxyphenyl)ethyl]amino}ethyl)benzoic acid]
> 10	COc1ccc(CCN(c2nc3cc(F)c(F)c(F)c3s2)C(C)c2ccc(C(=O)O)cc2)cc1 (centres unmarked) [Example 101, 4-(1-{[2-(4-methoxyphenyl)ethyl](5,6,7-trifluorobenzo[d]thiazol-2-yl)amino}ethyl)benzoic acid]
> 10	COc1ccc(CCN(c2nc3cc(F)ccc3s2)C(C)c2ccc(C(=O)O)cc2)cc1 (centres unmarked) [Example 113, 4-(1-{(5-fluorobenzo[d]thiazol-2-yl)[2-(4-methoxyphenyl)ethyl]amino}ethyl)benzoic acid]
< 1	COc1ccc(CCN(Cc2ccc(C(=O)O)cc2)c2nc3cccc([N+](=O)[O-])c3s2)cc1 [Example 80, 4-({[2-(4-methoxyphenyl)ethyl](7-nitro-benzo[d]thiazol-2-yl)amino}methyl)benzoic acid]
< 1	COc1ccc(CCN(c2nc3cccc(Cl)c3s2)C(C)c2ccc(C(=O)O)cc2)cc1 (centres unmarked) [Example 109, 4-(1-{(7-chloro-benzo[d]thiazol-2-yl)[2-(4-methoxyphenyl)ethyl]amino}ethyl)benzoic acid]
< 1	COc1ccc(CCN(Cc2ccc(C(=O)O)cc2)c2nc3cc(Cl)ccc3s2)cc1 [Example 85, 4-({(5-chloro-benzo[d]thiazol-2-yl)[2-(4-methoxyphenyl)ethyl]amino}methyl)benzoic acid]
< 1	COc1ccc(CCN(Cc2ccc(C(=O)O)cc2)c2nc3c(F)cc(F)cc3s2)cc1 [Example 95, 4-({(4,6-difluorobenzo[d]thiazol-2-yl)[2-(4-methoxyphenyl)ethyl]amino}methyl)benzoic acid]
> 10	COc1ccc(CCN(Cc2ccc(C(=O)O)cc2)c2nc3ccc(C(F)(F)F)cc3s2)cc1 [Example 119, 4-({[2-(4-methoxyphenyl)ethyl][6-(trifluoromethyl)benzo[d]thiazol-2-yl]amino}methyl)benzoic acid]
< 1	COc1cc(C)c(CCN(c2nc3cccc(F)c3s2)C(C)c2ccc(C(=O)O)cc2)cc1C (centres unmarked) [Example 64, 4-(1-{(7-fluorobenzo[d]thiazol-2-yl)[2-(4-methoxy-2,5-dimethylphenyl)ethyl]amino}ethyl)benzoic acid]
> 10	CCC(c1ccc(C(=O)O)cc1)N(CCc1cc(C)c(OC)cc1C)c1nc2cccc(F)c2s1 (centres unmarked) [Example 72, 4-(1-{(7-fluorobenzo[d]thiazol-2-yl)[2-(4-methoxy-2,5-dimethylphenyl)ethyl]amino}propyl)benzoic acid]
> 10	COc1ccc(CCN(c2nc3cc(F)cc(F)c3s2)C(C)c2ccc(C(=O)O)cc2)cc1 (centres unmarked) [Example 99, 4-(1-{(5,7-difluorobenzo[d]thiazol-2-yl)[2-(4-methoxyphenyl)ethyl]amino}ethyl)benzoic acid]
> 10	CC(c1ccc(C(=O)O)cc1)N(CCc1ccc(F)cc1F)c1nc2cccc(F)c2s1 (centres unmarked) [Example 56, 4-(1-{[2-(2,4-difluorophenyl)ethyl](7-fluorobenzo[d]thiazol-2-yl)amino}ethyl)benzoic acid]
> 10	CCC(c1ccc(C(=O)O)cc1)N(CCc1cc(F)c(OC)cc1F)c1nc2cccc(F)c2s1 (centres unmarked) [Example 69, 4-(1-{[2-(2,5-difluoro-4-methoxyphenyl)ethyl](7-fluorobenzo[d]thiazol-2-yl)amino}propyl)benzoic acid]

— patent publication US10383859B2, “Benzo[d]thiazole derivative or salt thereof, and pharmaceutical composition including same” (Yuhan Corporation, priority 2016, dated 2019)
